According to patent US4783481A, “Rodenticides” (priority 1983, dated 1988):

Columns and labels:
[1] = test system: pheasants (Phasianus colchicus); format: in vivo; settings: pheasants fed pelleted formulations; vs mixture of all four isomers (approximately 1:1:1:1)
From the text: (§1) The compositions and methods of the invention may be successfully used to control rodents whilst minimising the hazard to non-target species as compared with the use of known compositions. […] This illustrates the improved safety of the invention compositions in the case of accidental ingestion of rodenticide bait by a non-target species.

[2] = Analysis of relative proportions of cis and trans isomers in carcasses of target and non-target species; format: in vivo, foxes, cats, hawks, owls and crows; settings: mixed isomers dosed
From the text: We have now discovered that although there is little to choose between the isomers in terms of their rodenticidal effectiveness there is a significant difference in their persistence in the tissues of nonrodent non-target species which may be exposed to accidental ingestion of brodifacoum.
Species in which this selective depuration has been noted include scavanging and preditor mammals such as foxes and cats, and birds such as hawks, owls and crows. Thus if non-target species such as these consume the carcasses of rodents which have been killed by the use of the invention compositions they will be able to metabolise the residues of the active ingredient and not be at risk through bioaccumulation of a toxic dose by subsequently consuming further contaminated carcasses.

[3] = Selective depuration of isomer pairs from vole tissue, Example 4; format: in vivo, meadow voles (Microtus penusylvanicus); settings: for Amount of isomer pair recovered from the tissue / concentration at 24 h / concentration at 48 h / concentration at 72 h / concentration at 96 h / concentration at 120 h: 10 ppm pellets, 0.54 mg/kg of A-D mixture consumed; for Ratio: isomers C and D to isomers A and B; for half-life / concentration at 24 h / concentration at 48 h / concentration at 72 h / concentration at 96 h / concentration at 120 h: po; for half-life: 0.54 mg/kg, calculated; for half-life / depuration: vole tissue; for depuration: in words; for concentration at 24 h / concentration at 48 h / concentration at 72 h / concentration at 96 h / concentration at 120 h: vole, tissue, read-out: Amount of isomer pair recovered from the tissue
Method: This Example illustrates the selective depuration of the active ingredient of the invention compositions by meadow voles (Microtus penusylvanicus).
Fasted wild voles were given pellets containing 10 ppm of mixture (approximately 1:1:1:1 by weight) of isomers A, B, C and D of brodifacoum until they had consumed 0.54 mg of active ingredient per kilogram of body weight. Voles were killed at 0, 1, 2, 3, 4, 5 and 14 days after dosing and the relative amounts of the A, B isomer pair and the C, D isomer pair remain in the vole tissue determined by chromatographic means.

cats = assay: in vivo; format: in vivo; settings: diet simulating contaminated carcase
From the text: as §1

in vivo = format: in vivo; settings: cat, in vivo, po; cats; similar diet with corresponding quantity of all four isomers
From the text: as §1

Compound | Amount of isomer pair recovered from the tissue ([3]; 0 days after dosing) [mg/kg] | half-life [3] [h] | depuration [3] | concentration at 24 h ([3]; 1 day after dosing) [ng/g] | concentration at 48 h ([3]; 2 days after dosing) [ng/g] | concentration at 72 h ([3]; 3 days after dosing) [ng/g] | concentration at 96 h ([3]; 4 days after dosing) [ng/g] | concentration at 120 h ([3]; 5 days after dosing) [ng/g] | prothrombin time (cats) | also measured
O=c1oc2ccccc2c(O)c1[C@@H]1C[C@@H](c2ccc(-c3ccc(Br)cc3)cc2)Cc2ccccc21 (relative stereo) [Isomers C and D] | 0.122 | ~24 | rapid depuration | 52 | 24 | 14 | 11 | 5 | temporary increase in prothrombin time which returned to normal after a short period | survival rate [1]: much higher survival rate; selective depuration / metabolism ([2]; listed as isomers C and D of brodifacoum): rapid depuration; selective depuration / metabolism ([2]; listed as trans isomer): selective metabolism of most or all of the trans isomer; Ratio ([3]; 0 days after dosing): 0.818; Ratio ([3]; 1 day after dosing): 0.354; Ratio ([3]; 2 days after dosing): 0.211; Ratio ([3]; 3 days after dosing): 0.123; Ratio ([3]; 4 days after dosing): 0.089; Ratio ([3]; 5 days after dosing): 0.05; mortality (cats; in words): no mortality
O=c1oc2ccccc2c(O)c1C1CC(c2ccc(-c3ccc(Br)cc3)cc2)Cc2ccccc21 (stereo not drawn) [all four brodifacoum isomers, reference compound] | – | – | – | – | – | – | – | – | increased prothrombin times which did not return to normal | mortality (in vivo): 100%
O=c1oc2ccccc2c(O)c1[C@H]1C[C@@H](c2ccc(-c3ccc(Br)cc3)cc2)Cc2ccccc21 (relative stereo) [Isomers A and B, reference compound] | 0.15 | > 336 | retained in the tissue | 147 | 114 | 114 | 123 | 101 | – | selective depuration / metabolism [2]: not metabolised at a sufficient rate to avoid the lethal consequences; selective depuration / metabolism ([2]; listed as cis isomer): relatively metabolically more stable
